Results taken from article PMC7734798 (ACS Medicinal Chemistry Letters, 2020).
Where “and” joins values, the source holds several entries; their conditions need not be identical. Identical values can stand only once. Like-named read-outs stand apart in the source and are kept apart here.

Tests used:
[1] = Brain stability / hydrolysis kinetics in rat brain homogenate (LC-DAD-MS/MS); type: in vitro ADME; settings: 37 °C; for hydrolysis in rat brain homogenate in presence of FAAH inhibitor PF-3845: 5 μM PF-3845; for time to total disappearance of starting compound in rat brain homogenate / half-life at 1 µg/mL: absence of FAAH inhibitor; for half-life at 1 µg/mL: rat, brain homogenate
Procedure: We anticipated that, once they entered into the brain, conjugates would be hydrolyzed to the individual components by intracellular metabolic enzymes processing fatty acid derivatives (e.g., FAAH).[9],[17] Thus, the stability of 1 and 2 was evaluated by LC-DAD-MS/MS analysis of rat brain homogenate incubated with the conjugates, which was sampled at regular intervals over 1 h. To obtain initial clues on the implication of FAAH enzymes in hydrolysis, the assays were performed in the absence and presence of 5 μM FAAH inhibitor PF-3845.[9]
Velp (Usmate, Italy) RX3 vortex mixer and an Elma (Singen, Germany) Sonic T310 Trans ultrasonic […]
Chromatographic runs were obtained on an Agilent (Palo Alto, Ca, US) ZORBAX SB-C18 column (50 × 2.1 mm I.D., 3.5 µm particles), maintained at room temperature and equipped with a guard column. The mobile phase was a mixture of 0.1% aqueous formic acid (A) and acetonitrile (B), flowing at a constant rate of 0.3 mL/min. The mobile phase was set in isocratic mode with A:B ratio of (65:35, V:V); the two components of the mobile phase were filtered through Sartorius (Göttingen, Germany) membrane filters (47 mm diameter, polyamide, 0.2 µm pore size) and degassed by an ultrasonic bath. The injection volume was 10 μL. For compound purity, Total Ion Current (TIC) mode was used and DAD chromatograms were checked at 200 nm and 540 nm. For compound stability and hydrolysis studies, multiple reaction monitoring (MRM) acquisition mode was set up for both compounds 1 and 2, by flow-injection analysis directly in the MS source, in order to optimize ionization parameters and to select two exclusive MRM m/z transitions for each analyte, exploited for quantitative purposes and for qualitative confirmation, respectively.
Sample analysis and method validation […]
For compound stability and hydrolysis studies, after setting up MRM acquisition mode for both 1 and 2 as described previously, the LC-MS/MS method was coupled to an optimized sample preparation protocol to be applied to biological matrices, namely rat plasma and rat brain homogenate. Briefly, for both matrices, 1-mL sample was brought to 37±0.5°C by means of a thermostatted water bath.
Then, 50µL of analyte working solution was added to the matrix sample in order to obtain a final […]
concentration of 1 µg/mL. […]
plasma) and hydrolysis (in brain homogenate). Then, at regular intervals (5, 10, 15, 20, 25, 30, 45, 60 min) a 50-µL aliquot was sampled from the vial, added with 50 µL of ice-cold ACN and centrifuged for 5 min at 4500 rpm at 5°C. The resulting supernatant was subjected to an original miniaturized extraction procedure, based on microextraction by packed sorbent (MEPS), in order to purify the samples from potential interfering signals deriving from the matrices. The solution obtained after MEPS procedure was directly injected into the LC-MS/MS system under the optimized conditions previously described. Compound quantitation was obtained by integrating peak areas obtained from sample analysis and by interpolation on the linearity curve of each analyte. All analyses were carried out in triplicate and results were then expressed as % of remaining compound with respect to that assessed at t0 (100%), plotted against the defined time points.
In order to be applied for stability and hydrolysis studies, the MEPS-LC-MS/MS method was fully validated on both plasma and brain homogenate samples fortified with known amounts of compounds 1 and 2, pretreated and analyzed right after the addition of analyte working solutions. Method validation was performed according to the main international guidelines [ICH Harmonised Tripartite Guideline. Validation of Analytical Procedures: Text and Methodology Q2(R1); International Conference on Harmonisation of Technical] in terms of linearity (including limit of detection, LOD and limit of quantitation, LOQ), precision, accuracy, extraction yield and matrix effect.

N9 microglial cells = test: Nitrites measurement (Griess reaction) in medium of LPS-treated N9 microglial cells; type: cell-based, mouse; settings: 100 ng/mL LPS, 6 h pretreatment + 24 h
Text: Microglia, essential regulators of neuroinflammatory processes, can be polarized to two distinct activation states: M1 and M2. M1 microglia have proinflammatory, neurotoxic properties and are modeled in vitro through lipopolysaccharides (LPS) activation. Alternatively, M2 microglia are involved in anti-inflammatory processes, contributing to trophic support of neurons and neuroprotective functions. A marked microglial activation with high expression levels of proinflammatory genes is found in MS lesions.[23] Conversely, the neuroprotective effects of the MS drug glatiramer are mediated by activated M2 microglia.[24] To this end, we evaluated whether 1 and 2 modulate microglial shift from an M1 neurotoxic phenotype to an M2 neuroprotective one. […] After pretreatment for 6 h and administration for a further 24 h, the microglial phenotype was evaluated through Western blot analysis of the M1-iNOS (inducible Nitric Oxide Synthase) and M2-TREM2 (Triggering Receptor Expressed on Myeloid cells 2) markers (Figure 6). We also assessed nitrite production, due to iNOS induction, in the incubation media. […]
medium/well and treated with increasing concentrations of the compounds (0.5, 1, 5 and 10 μM), in serum-free DMEM for 24 hours. After 24 hours, the viability was evaluated through the MTT assay. […]

[2] = tested on: human liver carcinoma immortalized cell line (HepG2); settings: for cell survival/death in HepG2 cells, % mean ± SE of controls (MTT): 24 h treatment; for hepatotoxicity in HepG2 (in words): even at the higher tested concentrations

SMILES | hydrolysis in rat brain homogenate in presence of FAAH inhibitor PF-3845 [1] | time to total disappearance of starting compound in rat brain homogenate [1] | half-life at 1 µg/mL [1] | levels of nitrites in incubation medium (N9 microglial cells) | cell survival/death in HepG2 cells, % mean ± SE of controls (MTT) ([2]; 5 μM) | cell survival/death in HepG2 cells, % mean ± SE of controls (MTT) ([2]; 10 μM) | cell survival/death in HepG2 cells, % mean ± SE of controls (MTT) ([2]; 25 μM) | cell survival/death in HepG2 cells, % mean ± SE of controls (MTT) ([2]; 50 μM) | hepatotoxicity in HepG2 (in words) [2]
CC/C=C\C/C=C\C/C=C\CCCCCCCC(=O)NCCNC(=O)C(CCC)CCC [compound 1] | blocks the hydrolysis of both 1 and 2 to a large extent | ≤ 1 h | ~23 min | reduced their concentration more effectively than VPA | 87 ± 13% | 93 ± 5% | 81 ± 10% and > 80% | 64 ± 8% | low hepatotoxicity
CC/C=C\C/C=C\C/C=C\CCCCCCCC(=O)NCCOC(=O)C(CCC)CCC [compound 2] | blocks the hydrolysis of both 1 and 2 to a large extent | ≤ 1 h | ~16 min | reduced their concentration more effectively than VPA | 102 ± 10% | 104 ± 4% | 84 ± 6% and > 80% | 80 ± 9% | low hepatotoxicity
